Laboratory results taken from US20060148898A1 (priority 2003, published 2006).
“Also recorded” adds a separate entry of the source. Like-named read-outs stand apart in the source and are kept apart here.

Legend:
[1] = test system: adult volunteers; conditions: human, in vivo
[2] = test system: male rats of the Wistar-100 line; conditions: rat, in vivo
[3] = test system: male rats of the Wistar-100 line; conditions: rat, in vivo; remark: listed apart in the source
[4] = test system: male rats of the Wistar-100 line; conditions: rat, in vivo; remark: listed apart in the source

O=S(=O)([O-])CC(S)CS.[Na+] (stereo not shown) [Unithiol, 2,3-Dimercaptopropane-sulfonate Na]
biochemical values (MDA, vitamins E and A, SH-groups, ALT, AST, triglycerides) [1]: did not lead to worsening of the biochemical values; also recorded: restoration of the initial (basic) level of the biochemical values | time after intake at which the subjective perception of withdrawal is removed [1]: 8 to 10 min | Alanine aminotransferase (ALT) activity in liver homogenates [2]: twice lower | activity of enzymes characterizing damage of hepatocyte membranes (ALT, AST) [2]: reliably lower than in the control group | concentration of end products of lipid peroxidation (TBA-positive compounds) in blood plasma [2]: reliably differing from an analogous group without use of Unithiol toward; lowering | mean content of vitamin E and A in blood plasma [2]: on the level of values in the control group | content of the main endogenous antioxidants (vitamins E, A, SH-groups) ([2]; po): preserved on the level close to the values in the control group | biochemical parameters of toxic action of ethanol on liver tissue (lipid peroxides, triglycerides, ALT, AST) [3]: oral administration of Unithiol yields essentially better values | concentration of end products of lipid peroxidation (TBA-positive compounds) in blood plasma [4]: reliably differing from an analogous group without use of Unithiol toward; lowering | content of the main endogenous antioxidants (vitamins E, A, SH-groups) ([4]; po): preserved on the level close to the values in the control group
